Publication PMC8069289 (Molecules, 2021)
“Also recorded” adds a separate entry of the source. Marks after values point to notes of the source that are not given here.

How the values were obtained:
Drosophila melanogaster [1] = assay: Chronic treatments: lifespan and healthspan assays; format: in vivo; conditions: for Healthspan (80th Percentile) / Mean Lifespan: chronic, mean ±SE; for lifespan compared with concurrent control: all tested concentrations
Experimental: Flies used in the lifespan assays show the same genetic background those used in the genotoxicity assays in order to compare both result. The treated adults consisted of the F1 progeny from mwh and flr^3 parental strains produced by a 24 h eggs-lying in yeast medium. The same compounds and concentrations as in the toxicity/genotoxicity experiments were assayed. Lifespan assays were carried out at 25 °C according to the procedure described by Fernandez-Bedmar et al.. Briefly, synchronized 72 ± 12-h-old trans-heterozygous larvae were washed in distilled water, collected and transferred in groups of 100 individuals into test vials containing 0.85 g Drosophila Instant Medium and 4 mL of the different concentrations of the compounds to be assayed. Emerged adults from pupae were collected under CO2 anaesthesia and placed in groups of 25 individuals of the same sex into sterile vials containing 0.21 g Drosophila Instant Medium and 1 mL of different concentrations of the compounds to be tested. Flies were chronically treated during all their life. The number of survivors was determined twice a week in three different replicates.

HL-60 cells = assay: Alkaline SCGE (comet assay), Tail Moment; format: cell-based, human; conditions: HL-60, 5 h
Experimental: DNA integrity was assayed by SCGE as described by Olive and Banáth with minor modifications. […] After treatment, cells were washed twice and adjusted to 6.25 × 10^5 cells/mL in PBS. Electrophoresis gels were prepared pouring a 1:4 dilution (cells in liquid low-melting-point agarose at 40 °C, […], Sigma) into slides. Gels were covered with a coverslip and allowed to solidify at RT for 30 min. Once the slides solidified, the coverslips were carefully removed and slides were bathed in freshly prepared lysing solution (2.5 M NaCl, 100 mM Na-EDTA, 10 mM Tris, 250 mM NaOH, 10% DMSO and 1% Triton X-100; pH = 13) for 1 h at 4 °C. Thereafter, slides were equilibrated in alkaline electrophoresis buffer (300 mM NaOH and 1 mM Na-EDTA, pH = 13) for 20-30 min at 4 °C. Once equilibrated, the slides were underwent electrophoresis (12 V, 400 mA for 8 min) in the dark and were immediately neutralized in cold neutral solution (0.4 M Tris-HCl buffer, pH 7.5) for 10 min. […] Gels were stained with 7 μL propidium iodide and photographed in a DM2500 microscope (Leica Microsystems GmBH, Wetzlar, Germany) at 400× magnification. […] A one-way ANOVA and post-hoc Tukey's test with SPSS Statistics for Windows, Version 19.0 (2010, IBM Corporation, Armonk, NY, USA) was applied to determine the effect of the tested compounds on HL-60 cell DNA integrity from the analyses of Tail Moment (TM) data.

[2] = tested on: Alu M1 repetitive sequences of HL-60 cells; assay: Methylation status by qMSP, Alu M1; format: cell-based, human; conditions: HL-60, 5 h, 11 mM GLU
Experimental: Then, DNA was extracted similarly to previously described DNA fragmentation assay. After that, the DNA was converted with bisulphite (EZ DNA Methylation-Gold™ Kit, Zymo Research, Irvine, CA, USA). Bisulphite-modified DNA was used for fluorescence-based real-time quantitative Methylation-Specific PCR (qMSP) using 5 µM of each forward and reverse primer (Isogen Life Science BV, Utrecht, The Netherlands), 2 µL of iTaq™ Universal SYBR® Green Supermix (Bio-Rad Laboratories, Inc., Hercules, CA, USA); it contains antibody-mediated hot-start iTaq DNA polymerase, dNTPs, MgCl2, SYBR® Green I dye, enhancers, stabilizers and a blend of passive reference dyes including ROX and fluorescein) and 25 ng of bisulphite converted genomic DNA.
PCR conditions included initial denaturalisation at 95 °C for 3 min and amplification which consisted of 45 cycles at 95 °C for 10 s, 60 °C for 15 s and 72 °C for 15 s, taking picture at the end of each elongation cycle. After that, melting curve was determined increasing 0.5 °C each 0.05 s from 60 °C to 95 °C and taking pictures.
QMSP was carried out in 48 well plates in MiniOpticon Real-Time PCR System (MJ Mini Personal Thermal Cycler, Bio-Rad) and were analysed by Bio-Rad CFX Manager 3.1 Software. The housekeeping Alu-C4 was used as a reference to correct for total DNA input. […] Each sample was analysed in triplicate. […]

[3] = tested on: human umbilical endothelial cells; conditions: 30 mM GLU; cited from earlier work
Drosophila melanogaster [4] = assay: Toxicity assay, survival of larvae to adults (simple treatment)
Experimental: Toxicity was assayed according to our standard protocols. […] Tested groups consisted of larvae fed with Drosophila Instant Medium (Formula 4–24, Carolina Biological Supply, Burlington, NC, USA) supplemented with the assessed compounds concentrations. Emerging adults of all groups were counted and toxicity was determined as the percentage of hatched individuals in each treatment compared with the negative control.

CHO cells = tested on: CHO cells; set-up: method as in PMID 7588651; conditions: 1 mM TAU; cited from earlier work
Drosophila = conditions: cited from earlier work
calf thymus DNA = tested on: calf thymus DNA; set-up: method as in PMID 11787620; conditions: 5–20 mM TAU; cited from earlier work
Drosophila melanogaster [5] = assay: Genotoxicity, wing spot test (SMART); conditions: simple treatment; for Large Simple Spots (>2 Cells) m = 5 / Small Single Spots (1–2 Cells) m = 2 / Total Spots m = 2: No. of spots in parentheses
Experimental: The wing spot test was performed to evaluate genotoxicity assays following the standard procedure [14]. Briefly, trans-heterozygous larvae for mwh and flr^3 genes were obtained by crossing four day-old virgin flr^3 females with mwh males in a 2:1 ratio. Four days after fertilization, females were allowed to lay eggs in fresh yeast medium (25 g yeast and 4 mL sterile distilled water) for 8 h in order to obtain synchronized larvae. After 72 h, larvae were collected, washed with distilled water, and clustered in groups of 100 individuals. […] Adult flies were collected and stored in 70% ethanol until the wings were removed and mounted on slides using Faure’s solution. Mutant spots were assessed in both dorsal and ventral surfaces of the wings in a bright light microscope at 400× magnification. The frequencies of each type of mutant clone per wing (single, large or twin spot) were compared with the concurrent negative control [43]. All inconclusive and positive results (p > 0.05) were analysed with the nonparametric U-test of Mann, Whitney and Wilcoxon (α = β = 0.05).

[6] = GLU 2.7 mM vs concurrent water control
[7] = GLU 11 mM vs concurrent water control
[8] = GLU 21.86 mM vs concurrent water control
[9] = GLU 87.5 mM vs concurrent water control
[10] = GLU 350 mM vs concurrent water control
[11] = TAU 0.25 mM vs concurrent water control
[12] = TAU 1 mM vs concurrent water control
[13] = TAU 2 mM vs concurrent water control
[14] = TAU 8 mM vs concurrent water control
[15] = TAU 32 mM vs concurrent water control

For `OC[C@H]1OC(O)[C@H](O)[C@@H](O)[C@@H]1O` (stereo partly drawn) [GLU, Glucose], the “increase of the quality of life (healthspan)” value (Drosophila melanogaster [1]; 350 mM GLU) was 34%, the “Healthspan Difference (%)” value (Drosophila melanogaster [1]; [6]) was −4.5% and the “Mean Lifespan Difference (%)” value (Drosophila melanogaster [1]; [6]) was 2.65%. The “Healthspan (80th Percentile)” value (Drosophila melanogaster [1]; GLU 2.7 mM) was 31.14 ± 1.53 days, the “Mean Lifespan” value (Drosophila melanogaster [1]; GLU 2.7 mM) was 61.25 ± 2.12 days and the “Healthspan Difference (%)” value (Drosophila melanogaster [1]; [7]) was 25.65%. For the same molecule, the “Mean Lifespan Difference (%)” value (Drosophila melanogaster [1]; [7]) was 8.76%, the “Healthspan (80th Percentile)” value (Drosophila melanogaster [1]; GLU 11 mM) was 41 ± 3.4 days and the “Mean Lifespan” value (Drosophila melanogaster [1]; GLU 11 mM) was 64.9 ± 2.05 days. The “Healthspan Difference (%)” value (Drosophila melanogaster [1]; [8]) was −5.8%, the “Mean Lifespan Difference (%)” value (Drosophila melanogaster [1]; [8]) was 5.9% and the “Healthspan (80th Percentile)” value (Drosophila melanogaster [1]; GLU 21.86 mM) was 30.66 ± 3.62 days. For the same molecule, the “Mean Lifespan” value (Drosophila melanogaster [1]; GLU 21.86 mM) was 63.21 ± 2.08 days, the “Healthspan Difference (%)” value (Drosophila melanogaster [1]; [9]) was −8.4% and the “Mean Lifespan Difference (%)” value (Drosophila melanogaster [1]; [9]) was 1.39%. The “Healthspan (80th Percentile)” value (Drosophila melanogaster [1]; GLU 87.5 mM) was 29.9 ± 1.96 days, the “Mean Lifespan” value (Drosophila melanogaster [1]; GLU 87.5 mM) was 60.5 ± 2.5 days and the “Healthspan Difference (%)” value (Drosophila melanogaster [1]; [10]) was −34%. The “Mean Lifespan Difference (%)” value (Drosophila melanogaster [1]; [10]) was −1.2%, the “Healthspan (80th Percentile)” value (Drosophila melanogaster [1]; GLU 350 mM) was 21.5 ± 0.76 days and the “Mean Lifespan” value (Drosophila melanogaster [1]; GLU 350 mM) was 59 ± 3.1 days. The “lifespan compared with concurrent control” value (Drosophila melanogaster [1]) was “did not significantly differ”, the “TM versus concurrent control (DNA damage)” value (HL-60 cells; three lowest concentrations of the cytotoxicity assay) was “significantly induce TM values higher than the concurrent control” and the “methylation status of Alu sequences” value [2] was “hypermethylated; also recorded: significantly increased”. The cytotoxicity [3] was “cytotoxicity was demonstrated”, the “Survival (%) Simple Treatment” value (Drosophila melanogaster [4]; GLU 2.7 mM) was 98% and the “Survival (%) Simple Treatment” value (Drosophila melanogaster [4]; GLU 11 mM) was 92.65%. For the same molecule, the “Survival (%) Simple Treatment” value (Drosophila melanogaster [4]; GLU 21.86 mM) was 90.32%, the “Survival (%) Simple Treatment” value (Drosophila melanogaster [4]; GLU 87.5 mM) was 70.3 * % and the “Survival (%) Simple Treatment” value (Drosophila melanogaster [4]; GLU 350 mM) was 65 * %.

In the case of `NCCS(=O)(=O)O` [TAU, 2-aminoethanesulfonic acid], the “Healthspan Difference (%)” value (Drosophila melanogaster [1]; [11]) is reported as −7.3%, the “Mean Lifespan Difference (%)” value (Drosophila melanogaster [1]; [11]) is reported as 4.57% and the “Healthspan (80th Percentile)” value (Drosophila melanogaster [1]; TAU 0.25 mM) is reported as 34.98 ± 3.954 days. For the same molecule, the “Mean Lifespan” value (Drosophila melanogaster [1]; TAU 0.25 mM) was 67.94 ± 2.603 days, the “Healthspan Difference (%)” value (Drosophila melanogaster [1]; [12]) was −20% and the “Mean Lifespan Difference (%)” value (Drosophila melanogaster [1]; [12]) was 2.81%. The “Healthspan (80th Percentile)” value (Drosophila melanogaster [1]; TAU 1 mM) was 30.22 ± 1.878 days, the “Mean Lifespan” value (Drosophila melanogaster [1]; TAU 1 mM) was 66.81 ± 3.215 days and the “Healthspan Difference (%)” value (Drosophila melanogaster [1]; [13]) was −6.4%. The “Mean Lifespan Difference (%)” value (Drosophila melanogaster [1]; [13]) was −4.8%, the “Healthspan (80th Percentile)” value (Drosophila melanogaster [1]; TAU 2 mM) was 35.357 ± 0.9 days and the “Mean Lifespan” value (Drosophila melanogaster [1]; TAU 2 mM) was 61.83 ± 2.25 days. The “Healthspan Difference (%)” value (Drosophila melanogaster [1]; [14]) was −2.6%, the “Mean Lifespan Difference (%)” value (Drosophila melanogaster [1]; [14]) was 7.95% and the “Healthspan (80th Percentile)” value (Drosophila melanogaster [1]; TAU 8 mM) was 36.8 ± 2.832 days. The “Mean Lifespan” value (Drosophila melanogaster [1]; TAU 8 mM) was 70.142 ± 2.385 days, the “Healthspan Difference (%)” value (Drosophila melanogaster [1]; [15]) was −3.2% and the “Mean Lifespan Difference (%)” value (Drosophila melanogaster [1]; [15]) was 1.6%. The “Healthspan (80th Percentile)” value (Drosophila melanogaster [1]; TAU 32 mM) was 36.57 ± 3.55 days, the “Mean Lifespan” value (Drosophila melanogaster [1]; TAU 32 mM) was 66.04 ± 2.055 days and the “lifespan compared with concurrent control” value (Drosophila melanogaster [1]) was “did not significantly differ”. For the same molecule, the “TM versus concurrent control (DNA damage)” value (HL-60 cells; 0.25 and 2 mM TAU) was “significantly induce TM values higher than the concurrent control”, the “Tail Moment (TM) of representative photograph” value (HL-60 cells; concentration not given) was 2.49 and the “induction of chromosome aberrations and sister chromatid exchanges” value (CHO cells) was “not able to induce neither chromosome aberrations nor sister chromatid exchanges”. For the same molecule, the “lifespan of Drosophila” value (Drosophila; 1.6% TAU) was “decrease the lifespan”, the “adult lifespan of Drosophila” value (Drosophila; TAU 0.05 to 0.20 M) was “had no influence on adult lifespan” and the “estimated mean values of survival” value (Drosophila; TAU 8–24 mM) was “increased the estimated mean values of survival”. The “protection of DNA against oxidative damage” value (calf thymus DNA) was “DNA-protected concentrations against oxidative damage”, the “Twin Spots m = 5” value (Drosophila melanogaster [5]; TAU 1 mM) was 0 clones per wing and the “Large Simple Spots (>2 Cells) m = 5” value (Drosophila melanogaster [5]; TAU 1 mM) was 0.08 (3) clones per wing. For the same molecule, the “Small Single Spots (1–2 Cells) m = 2” value (Drosophila melanogaster [5]; TAU 1 mM) was 0.027 (1) clones per wing, the “Total Spots m = 2” value (Drosophila melanogaster [5]; TAU 1 mM) was 0.108 (4) clones per wing and the “Twin Spots m = 5” value (Drosophila melanogaster [5]; TAU 32 mM) was 0 clones per wing. The “Large Simple Spots (>2 Cells) m = 5” value (Drosophila melanogaster [5]; TAU 32 mM) was 0.05 (2) clones per wing, the “Small Single Spots (1–2 Cells) m = 2” value (Drosophila melanogaster [5]; TAU 32 mM) was 0.15 (6) clones per wing and the “Total Spots m = 2” value (Drosophila melanogaster [5]; TAU 32 mM) was 0.2 (8) clones per wing.
